We go through 18 molecules from patent US20220162191A1, “SMALL MOLECULE MODULATORS OF IL-17” (LEO PHARMA A/S, priority 2019, published 2022).

Some results are limits rather than exact numbers.

The test deals with T1, human IL-17AA (Homo sapiens, UniProt Q16552).
T1 construct: host or cells: HEK (human embryonic kidney) cells
T1 sequence (Q16552 24-155) 1: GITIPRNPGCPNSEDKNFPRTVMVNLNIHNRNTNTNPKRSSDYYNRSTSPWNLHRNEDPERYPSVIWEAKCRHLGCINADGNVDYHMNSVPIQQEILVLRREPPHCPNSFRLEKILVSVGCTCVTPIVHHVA
T1 sequence (Q16552 24-155) 2: T1 sequence (Q16552 24-155) 1
Description: IL-8 release assay in human epithelial keratinocytes adult (HEKa). The note with it: 3 ng/ml human IL-17AA + 10 ng/ml human TNFalpha, 68-72 h, IL-8 by HTRF, read-out: Rel EC50 L-8 release assay. It is filed as cell-based. Put shortly: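 Adult human keratinocytes in Epilife with HKGS minus hydrocortisone, treated with compound then stimulated with final 3 ng/ml HEK-derived human IL-17AA plus 10 ng/ml TNF-alpha for 68–72 h at 37 °C; TNF-alpha alone defines 100% inhibition. Secreted IL-8 by HTRF; relative IC50 and Emax from four-parameter fits.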
With `CN1CCN(c2cc(-c3ccc(Cl)c(C[C@H](NC(=O)c4ccnn4C)C(=O)Nc4ccc(-c5cncn5C)cc4)c3)ccn2)CC1` [Example 206, N-[(1S)-1-[[2-chloro-5-[2-(4-methylpiperazin-1-yl)-4-pyridyl]phenyl]methyl]-2-[4-(3-methylimidazol-4-yl)anilino]-2-oxo-ethyl]-2-methyl-pyrazole-3-carboxamide], the concentration giving a half-maximal response (EC50) – broadly, the midpoint of the concentration-response curve – is 100 to 1000 nM.
With `CC(C)n1cc(-c2cccc(C(c3ccccc3)C(NC(=O)OC3CC3)C(=O)Nc3ccc(-c4cncn4C)cc3)c2)ccc1=O` (single isomer, unassigned; diastereomer 3) [Example 240, cyclopropyl N-[1-[[3-(1-isopropyl-6-oxo-3-pyridyl)phenyl]-phenyl-methyl]-2-[4-(3-methylimidazol-4-yl)anilino]-2-oxo-ethyl]carbamate (Diastereomer 3)], the EC50 is greater than 1000 nM.
In the case of `CC(C)n1cc(-c2ccc(Cl)c(CC(NC(=O)c3ccnn3C)C(=O)Nc3ccc(-c4cnnn4C)cc3)c2)ccc1=O` (stereo not drawn) [Example 65, N-[1-[[2-chloro-5-(1-isopropyl-6-oxo-3-pyridyl)phenyl]methyl]-2-[4-(3-methyltriazol-4-yl)anilino]-2-oxo-ethyl]-2-methyl-pyrazole-3-carboxamide], the concentration for a half-maximal effect (EC50) is greater than 1000 nM.
With `Cn1cncc1-c1ccc(NC(=O)C(Cc2cc(-c3ccnc(N4CCCCC4)c3)ccc2Cl)NC(=O)c2ccnn2C)cc1` (stereo not drawn) [Example 160, N-[1-[[2-chloro-5-[2-(1-piperidyl)-4-pyridyl]phenyl]methyl]-2-[4-(3-methylimidazol-4-yl)anilino]-2-oxo-ethyl]-2-methyl-pyrazole-3-carboxamide], the EC50 was in the range of 100 to 1000 nM.
Regarding `CC(C)n1cc(-c2ccc3c(c2)[C@@H]([C@@H](NC(=O)c2ccnn2C)C(=O)Nc2ccc(-c4cncn4C)cc2)CCC3)ccc1=O` [Example 48, N-[(1R)-1-[(1S)-7-(1-isopropyl-6-oxo-3-pyridyl)tetralin-1-yl]-2-[4-(3-methylimidazol-4-yl)anilino]-2-oxo-ethyl]-2-methyl-pyrazole-3-carboxamide], the half-maximal effective concentration (EC50) is greater than 1000 nM.
With `Cc1nocc1C(=O)N[C@@H](Cc1cc(-c2ccnc(C(O)C(C)C)c2)ccc1Cl)C(=O)Nc1ccc(-c2nncn2C)cc1` (stereo partly drawn) [Example 82, N-[(1S)-1-[[2-chloro-5-[2-(1-hydroxy-2-methyl-propyl)-4-pyridyl]phenyl]methyl]-2-[4-(4-methyl-1,2,4-triazol-3-yl)anilino]-2-oxo-ethyl]-3-methyl-isoxazole-4-carboxamide], the EC50 was in the range of 100 to 1000 nM.
Regarding `CC(C)n1nccc1C(=O)N[C@@H](Cc1cc(-c2ccc(=O)n(C(C)C)c2)ccc1Cl)C(=O)Nc1ccc(-c2nncn2C)cc1` [Example 91, N-[(1S)-1-[[2-chloro-5-(1-isopropyl-6-oxo-3-pyridyl)phenyl]methyl]-2-[4-(4-methyl-1,2,4-triazol-3-yl)anilino]-2-oxo-ethyl]-2-isopropyl-pyrazole-3-carboxamide], the EC50 fell in the range of 100 to 1000 nM.
`Cc1cnn(C)c1-c1ccc(NC(=O)[C@@H](NC(=O)c2ccnn2C)[C@@H]2CCc3ccc(-c4cc(N5C[C@@H]6C[C@H]5CO6)ncn4)cc32)cc1` [Example 386, N-[(1S)-2-[4-(2,4-dimethylpyrazol-3-yl)anilino]-1-[(1R)-6-[6-[(1S,4S)-2-oxa-5-azabicyclo[2.2.1]heptan-5-yl]pyrimidin-4-yl]indan-1-yl]-2-oxo-ethyl]-2-methyl-pyrazole-3-carboxamide]: the 50% effective concentration (EC50) lay within 100 to 1000 nM.
Regarding `Cc1n[nH]c(C)c1-c1ccc(NC(=O)[C@@H](NC(=O)c2ccnn2C)[C@@H]2CCc3ccc(-c4ccc5c(c4)CCNC5)cc32)cc1` [Example 17, N-[(1S)-2-[4-(3,5-dimethyl-1H-pyrazol-4-yl)anilino]-2-oxo-1-[(1R)-6-(1,2,3,4-tetrahydroisoquinolin-6-yl)indan-1-yl]ethyl]-2-methyl-pyrazole-3-carboxamide], the concentration giving a half-maximal response (EC50) is less than 100 nM.
For `Cn1cncc1-c1ccc(NC(=O)C(Cc2cc(-c3ccnc(N4CC[C@@H](O)C4)c3)ccc2Cl)NC(=O)c2ccnn2C)cc1` (stereo partly drawn) [Example 192, N-[1-[[2-chloro-5-[2-[(3R)-3-hydroxypyrrolidin-1-yl]-4-pyridyl]phenyl]methyl]-2-[4-(3-methylimidazol-4-yl)anilino]-2-oxo-ethyl]-2-methyl-pyrazole-3-carboxamide], the concentration for a half-maximal effect (EC50) was 100 to 1000 nM.
`Cc1cnn(C)c1-c1ccc(NC(=O)[C@@H](NC(=O)C2(F)CC2)[C@@H](c2cccc(-c3cc(N4C[C@@H]5C[C@H]4CO5)ncn3)c2)C2CC2)cc1` [Example 352, N-[(1S)-1-[(R)-cyclopropyl-[3-[6-[(1S,4S)-2-oxa-5-azabicyclo[2.2.1]heptan-5-yl]pyrimidin-4-yl]phenyl]methyl]-2-[4-(2,4-dimethylpyrazol-3-yl)anilino]-2-oxo-ethyl]-1-fluoro-cyclopropanecarboxamide]: the concentration giving a half-maximal response (EC50) lay in the range of 100 to 1000 nM.
Regarding `Cc1n[nH]c(C)c1-c1ccc(NC(=O)[C@H](Cc2cc(-c3ccnc(N4CCSCC4)n3)ccc2Cl)NC(=O)C2(F)CC2)cc1` [Example 314, N-[(1S)-1-[[2-chloro-5-(2-thiomorpholinopyrimidin-4-yl)phenyl]methyl]-2-[4-(3,5-dimethyl-1H-pyrazol-4-yl)anilino]-2-oxo-ethyl]-1-fluoro-cyclopropanecarboxamide], the EC50 was less than 100 nM.
Turning to `CCCCn1cc(-c2ccc(Cl)c(C[C@H](NC(=O)c3ccnn3C)C(=O)Nc3ccc(-c4cncn4C)cc3)c2)cn1` [Example 171], the concentration giving a half-maximal response (EC50) lay within 100 to 1000 nM.
To `CC(C)CC(=O)N[C@@H](Cc1cc(-c2ccc(=O)n(C(C)C)c2)ccc1Cl)C(=O)Nc1ccc(-c2nncn2C)cc1` [Example 115, N-[(1S)-1-[[2-chloro-5-(1-isopropyl-6-oxo-3-pyridyl)phenyl]methyl]-2-[4-(4-methyl-1,2,4-triazol-3-yl)anilino]-2-oxo-ethyl]-3-methyl-butanamide] belongs greater than 1000 nM.
Regarding `CC(C)n1cc(-c2ccc(Cl)c(CC(NC(=O)c3conc3C(F)(F)F)C(=O)Nc3ccc(-c4nncn4C)cc3)c2)ccc1=O` (stereo not drawn) [Example 95, N-[1-[[2-chloro-5-(1-isopropyl-6-oxo-3-pyridyl)phenyl]methyl]-2-[4-(4-methyl-1,2,4-triazol-3-yl)anilino]-2-oxo-ethyl]-3-(trifluoromethyl)isoxazole-4-carboxamide], the EC50 is greater than 1000 nM.
As to `Cn1cnnc1-c1ccc(NC(=O)C(Cc2cc(-c3ccc(C#N)cc3)ccc2Cl)NC(=O)c2ccnn2C)cc1` (stereo not drawn) [Example 308, N-[1-[[2-chloro-5-(4-cyanophenyl)phenyl]methyl]-2-[4-(4-methyl-1,2,4-triazol-3-yl)anilino]-2-oxo-ethyl]-2-methyl-pyrazole-3-carboxamide], the EC50 is greater than 1000 nM.
Turning to `Cc1cnn(C)c1-c1ccc(NC(=O)[C@@H](NC(=O)c2ccnn2C)[C@@H]2CCc3ccc(-c4cncc(C5CC5)n4)cc32)cc1` [Example 380, N-[(1S)-1-[(1R)-6-(6-cyclopropylpyrazin-2-yl)indan-1-yl]-2-[4-(2,4-dimethylpyrazol-3-yl)anilino]-2-oxo-ethyl]-2-methyl-pyrazole-3-carboxamide], the EC50 lay within 100 to 1000 nM.
Take `CN(C)Cc1cc(-c2ccc(Cl)c(CC(NC(=O)c3ccnn3C)C(=O)Nc3ccc(-c4nncn4C)cc3)c2)ccc1O` (stereo not drawn) [Example 139, N-[1-[[2-chloro-5-[3-(dimethylaminomethyl)-4-hydroxy-phenyl]phenyl]methyl]-2-[4-(4-methyl-1,2,4-triazol-3-yl)anilino]-2-oxo-ethyl]-2-methyl-pyrazole-3-carboxamide]: the EC50 was greater than 1000 nM.
